Experiments:
corn (ZEAMD) = assay: Test 14 field trial, preemergence, growth as percent of control; type: in vivo, Zea mays ssp. indentata; conditions: 1870 g a.i./ha
Excerpt: Corn seeds (hybrid ‘Pioneer 31G96 RR’) were planted in mid spring season, 3.8 cm deep in a clay loam soil having 2% organic matter and a pH of 6.6. Plots were 6.1 m long by 3.0 m wide with rows spaced 76 cm apart. Seeds were spaced 15 cm apart within the rows. The field was managed using conventional tillage practices. […] Yellow nutsedge was only evaluated 19 and 28 days after application, and ivyleaf morningglory could only be evaluated 28 days after application. […] Results are the means of the three replicates. This growth inhibition data was converted to results in the form of “plant growth as a percent of control plant growth” using the calculation “100 minus growth inhibition”. […] For “growth as a percent of control” data, Colby's Equation calculates the expected additive effect of herbicidal mixtures having two active ingredients as follows:
Ga+b=GaGb/100 • wherein Ga+b is the growth as a percent of control of plants treated with the mixture expected from additive contribution of the individual components, • Ga is the observed growth as a percent of control of plants treated with the first active ingredient at the same use rate as in the mixture, and • Gb is the observed growth as a percent of control of plants treated with the second active ingredient at the same use rate as in the mixture. For mixtures having three active ingredients, Colby's Equation to calculate the expected additive effect of herbicidal mixtures is as follows:
Ga+b+c=GaGbGc/10,000 • wherein Ga and Gb are as defined above and • Ga+b+c is the growth as a percent of control of plants treated with the mixture expected from additive contribution of the individual components, and • Gc is the observed growth as a percent of control of plants treated with the third active ingredient at the same use rate as in the mixture. When these two forms of Colby's Equation are used, if the observed effects on weeds are less than the expected values, the mixture is synergistic.

kochia (KCHSC) = assay: Test 24 growth chamber, postemergence; type: in vivo, Kochia scoparia; conditions: 17 DAA
Protocol: (§1) Plants were treated postemergence at the 2-4 leaf growth stage, and each treatment was replicated three times. […] Plants were watered as needed. […] Results for barley and wheat are the means across varieties of the three replicates, and results for the weeds are the means of the three replicates.

sorghum (SORVU) = assay: Test 28 greenhouse, postemergence; type: in vivo, Sorghum vulgare; conditions: 26 DAA
Protocol: (§2) A greenhouse test was conducted to evaluate the effects on the plant species corn (ZEAMD, Zea mays ssp. indentata), sorghum (SORVU, Sorghum vulgare L.), dry-seeded rice (ORYSA, Oryza sativa L.), wheat (TRZAW, Triticum aestivum L.), ivyleaf morningglory (IPOHE, Ipomoea hederacea (L.) JACQ.), and barnyardgrass (ECHCG, Echinochloa crus-galli (L.) P. BEAUV.), of mixtures of Compound 2 with isoxadifen-ethyl. Corn, sorghum, rice, wheat, ivyleaf morningglory and barnyardgrass seeds were planted in RediEarth, a commercial potting medium. […] Corn plants were treated postemergence at the V2 growth stage, and sorghum, rice, wheat, ivyleaf morningglory, and barnyardgrass plants were treated postemergence at the 3-leaf stage. […] Each treatment was replicated three times. […] Plants were watered as needed.

velvetleaf (ABUTH) [1] = assay: Test 16 greenhouse, post- and preemergence; conditions: 15 DAA
[2] = test system: ivyleaf morningglory (IPOHE); assay: Test 28 greenhouse, postemergence; type: in vivo, Ipomoea hederacea; conditions: 26 DAA
Protocol: as §2

giant foxtail (SETFA) = assay: Test 26 field trial, postemergence; type: in vivo, Setaria faberi; design: scale not given here
Excerpt: Corn seeds (hybrid ‘Pioneer 31G96’) were planted in mid spring season, 3.8 cm deep in a silt loam soil having 2% organic matter and a pH of 6.6. Plots were 6.1 m long by 3.0 m wide with rows spaced 76 cm apart. Seeds were spaced 15 cm apart within the rows. The field was managed using conventional tillage practices. […] All treatments also included a surfactant. […] Some of the weed species could not be evaluated at every timing. […] Results are the means of the three replicates.

Russian thistle (SASKR) = assay: Test 24 growth chamber, postemergence; type: in vivo, Salsola kali; conditions: 17 DAA
Protocol: as §1

velvetleaf (ABUTH) [3] = assay: Test 17 greenhouse, post- and preemergence; type: in vivo, Abutilon theophrasti; conditions: 12 DAA
Excerpt: Plants were watered as needed.

Which results are given for CCc1cccc(C)c1N(C(=O)CCl)[C@@H](C)COC [S-Metolachlor, S-metolachlor, reference compound]?
Obs growth % of control (corn (ZEAMD); 19 DAA): 98%; Obs growth % of control (corn (ZEAMD); 28 DAA): 98%; Obs growth % of control (corn (ZEAMD); 56 DAA): 100%

COC(=O)c1nc(C2CC2)nc(N)c1Cl [Compound 2, methyl 6-amino-5-chloro-2-cyclopropyl-4-pyrimidinecarboxylate] was tested. Which “KCHSC Obs (scale 0 to 100)” value (kochia (KCHSC); Cpd 2 4 g a.i./ha) did it give?
Its value is 65.

And the “KCHSC Obs (scale 0 to 100)” value (kochia (KCHSC); Cpd 2 8 g a.i./ha)?
The value was 77.

And the “KCHSC Obs (scale 0 to 100)” value (kochia (KCHSC); Cpd 2 16 g a.i./ha)?
Its value is 88.

What about the SORVU Obs (sorghum (SORVU); Cpd 2 32 g a.i./ha) of the same molecule?
Its SORVU Obs is 73%.

And the SORVU Obs (sorghum (SORVU); Cpd 2 64 g a.i./ha)?
Its SORVU Obs is 96%.

What about the “Obs response, scale 0 to 100” value (velvetleaf (ABUTH) [1]; Postemergence, 15 g a.i./ha) of the same molecule?
The value was 33.

And the “Obs response, scale 0 to 100” value (velvetleaf (ABUTH) [1]; Postemergence, 30 g a.i./ha)?
The value was 38.

And the “Obs response, scale 0 to 100” value (velvetleaf (ABUTH) [1]; Postemergence, 45 g a.i./ha)?
Its value is 61.

What about the “Obs response, scale 0 to 100” value (velvetleaf (ABUTH) [1]; Preemergence, 15 g a.i./ha) of the same molecule?
The value was 23.

And the “Obs response, scale 0 to 100” value (velvetleaf (ABUTH) [1]; Preemergence, 30 g a.i./ha)?
Its value is 38.

And the “Obs response, scale 0 to 100” value (velvetleaf (ABUTH) [1]; Preemergence, 45 g a.i./ha)?
The value was 42.

And the “IPOHE Obs” value ([2]; Cpd 2 32 g a.i./ha)?
Its value is 100.

And the “IPOHE Obs” value ([2]; Cpd 2 64 g a.i./ha)?
The value was 100.

And the “SETFA Obs” value (giant foxtail (SETFA); 28 DAA, 30 g a.i./ha)?
Its value is 98.

What about the “SETFA Obs” value (giant foxtail (SETFA); 28 DAA, 45 g a.i./ha) of the same molecule?
Its value is 97.

What about the “SETFA Obs” value (giant foxtail (SETFA); 28 DAA, 60 g a.i./ha) of the same molecule?
The value was 99.

And the “SETFA Obs” value (giant foxtail (SETFA); 56 DAA, 30 g a.i./ha)?
The value was 50.

What about the “SETFA Obs” value (giant foxtail (SETFA); 56 DAA, 45 g a.i./ha) of the same molecule?
The value was 73.

What about the “SETFA Obs” value (giant foxtail (SETFA); 56 DAA, 60 g a.i./ha) of the same molecule?
The value was 70.

What about the “SASKR Obs (scale 0 to 100)” value (Russian thistle (SASKR); Cpd 2 4 g a.i./ha) of the same molecule?
The value was 63.

And the “SASKR Obs (scale 0 to 100)” value (Russian thistle (SASKR); Cpd 2 8 g a.i./ha)?
Its value is 75.

What about the “SASKR Obs (scale 0 to 100)” value (Russian thistle (SASKR); Cpd 2 16 g a.i./ha) of the same molecule?
The value was 75.

What about the “Obs response, scale 0 to 100” value (velvetleaf (ABUTH) [3]; Postemergence, 15 g a.i./ha) of the same molecule?
The value was 29.

And the “Obs response, scale 0 to 100” value (velvetleaf (ABUTH) [3]; Postemergence, 30 g a.i./ha)?
Its value is 30.

What about the “Obs response, scale 0 to 100” value (velvetleaf (ABUTH) [3]; Postemergence, 45 g a.i./ha) of the same molecule?
Its value is 45.

What about the “Obs response, scale 0 to 100” value (velvetleaf (ABUTH) [3]; Preemergence, 15 g a.i./ha) of the same molecule?
Its value is 10.

And the “Obs response, scale 0 to 100” value (velvetleaf (ABUTH) [3]; Preemergence, 30 g a.i./ha)?
Its value is 24.

And the “Obs response, scale 0 to 100” value (velvetleaf (ABUTH) [3]; Preemergence, 45 g a.i./ha)?
The value was 45.

— patent publication US20100285959A1, “HERBICIDAL MIXTURES” (priority 2006, published 2010)
